Structures can show the parent of a compound that is named as a salt.

A word on the EC50: it is the concentration needed to bring the measured effect to its halfway point.

T1 sequence (P49144 whole entry): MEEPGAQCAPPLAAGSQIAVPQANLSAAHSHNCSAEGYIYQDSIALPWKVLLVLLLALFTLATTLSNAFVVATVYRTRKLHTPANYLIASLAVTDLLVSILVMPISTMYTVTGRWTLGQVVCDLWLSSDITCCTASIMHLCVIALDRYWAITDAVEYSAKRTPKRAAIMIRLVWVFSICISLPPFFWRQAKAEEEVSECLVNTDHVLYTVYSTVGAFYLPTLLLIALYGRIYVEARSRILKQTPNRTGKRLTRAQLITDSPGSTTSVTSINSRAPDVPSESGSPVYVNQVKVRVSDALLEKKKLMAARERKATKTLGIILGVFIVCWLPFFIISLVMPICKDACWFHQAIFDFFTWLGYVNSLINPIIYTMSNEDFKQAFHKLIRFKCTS

This experiment concerns the target T1, 5-HT1-like receptor (Oryctolagus cuniculus, UniProt P49144).
T1 construct: the basilar artery removed with the aid of a dissecting microscope; from tissue; host or cells: rabbit basilar artery ring segments, endothelium removed
Kind of experiment: Rabbit isolated basilar artery, cumulative concentration-effect curves (isometric tension). It counts as cell-based. As to conditions: rabbit isolated basilar artery rings, endothelium removed; in presence of ascorbate, indomethacin, cocaine, ketanserin and prazosin. The method, then:
Experiments were performed in intracranial arteries from rabbit isolated basilar artery in a similar method to one described previously (Parsons and Whalley, 1989. Eur J Pharmacol 174, 189-196.).
In brief, rabbits were killed by overdose with anaesthetic (sodium pentobarbitone). The whole brain was quickly removed and immersed in ice cold modified Kreb's solution and the basilar artery removed with the aid of a dissecting microscope. The Krebs solution was of the following composition (mM) Na^+ (120); K^+ (5); Ca^2+ (2.25); Mg^2+ (0.5); Cl^- (98.5); SO4^2- (1); EDTA (0.04), equilibrated with 95% O2 /5% CO2. The endothelium was removed by a gentle rubbing of the lumen with a fine metal wire. Arteries were then cut into ring segments (ca 4-5 mm wide) and set up for recording of isometric tension in 50 ml tissue baths in modified Krebs solution with the additional supplement of (mM); […] (20); fumarate (10); pyruvate (5); L-glutamate (5) and glucose (10). The arteries were then placed under a resting force of 3-4 mN maintained at 37° C. and the solution bubbled with 95% O2 /5% CO2.
After tests for initial reactivity with 90 mM KCl depolarising solution and for lack of acetylcholine-induced relaxation of 5-HT ([…]) precontraction, cumulative concentration-effect curves ([…]) to 5-HT were constructed in the presence of ascorbate […], cocaine […], indomethacin […], ketanserin […] and prazosin […].
Following a 45-60 min wash period, cumulative concentration-effect curves to the test compounds or 5-HT (as a time match control) were constructed in the presence of ascorbate, indomethacin, cocaine, ketanserin and prazosin.
As to `COc1ccc(CCCNC(=O)c2ccc3[nH]c4c(c3c2)CC(N)CC4)cc1` (stereo not drawn) [Example 17, 3-Amino-6-[3-(4-methoxyphenyl)propyl]carboxamido-1,2,3,4-tetrahydrocarbazole oxalate salt], the EC50 lay in the range of 90 to 4010 nM. Under `NC1CCc2[nH]c3ccc(C(=O)NCCc4ccccc4)cc3c2C1` (stereo not drawn) [Example 3, 3-Amino-6-N-(2-phenylethyl)carboxamido-1,2,3,4-tetrahydrocarbazole] stands 90 to 4010 nM. Turning to `NC1CCc2[nH]c3ccc(C(=O)NC/C=C/c4cccc([N+](=O)[O-])c4)cc3c2C1` (stereo not drawn) [Example 18, 3-Amino-6-[E-3 (3-nitrophenyl)prop-2-enyl]carboxamido-1,2,3,4-tetrahydrocarbazole oxalate salt], the EC50 is 90 to 4010 nM. `COc1cccc(/C=C/CNC(=O)c2ccc3[nH]c4c(c3c2)CC(N)CC4)c1` (stereo not drawn) [Example 14, 3-Amino-6-[E-3-(3-methoxyphenyl)prop-2-enyl]carboxamido-1,2,3,4-tetrahydrocarbazole oxalate salt]: the EC50 lay in the range of 90 to 4010 nM. In the case of `NC1CCc2[nH]c3ccc(C(=O)NCCc4ccc(S(N)(=O)=O)cc4)cc3c2C1` (stereo not drawn) [Example 9, 3-Amino-6-N-[2-(4-phenylsulphonamido)ethyl]carboxamido-1,2,3,4-tetrahydrocarbazole], the EC50 fell in the range of 90 to 4010 nM.

For `NC1CCc2[nH]c3ccc(C(=O)NC/C=C/c4ccccc4)cc3c2C1` (stereo not drawn) [Example 15, 3-Amino-6-(E-3-(phenylprop-2-enyl)carboxamido-1,2,3,4-tetrahydrocarbazole oxalate salt], the EC50 is 90 to 4010 nM. The value for `NC1CCc2[nH]c3ccc(C(=O)NCCCc4ccccc4)cc3c2C1` (stereo not drawn) [Example 1, 3-Amino-6-N-(3-phenylpropyl)carboxamido-1,2,3,4-tetrahydrocarbazole oxalate salt] was 90 to 4010 nM. Under `NC1CCc2[nH]c3ccc(C(=O)NCCc4ccc([N+](=O)[O-])cc4)cc3c2C1` (stereo not drawn) [Example 5, 3-Amino-6-N-[2-(4-nitrophenyl)ethyl]carboxamido-1,2,3,4-tetrahydrocarbazolefumarate salt] stands 90 to 4010 nM.

On to `CS(=O)(=O)Nc1ccc(CCNC(=O)c2ccc3[nH]c4c(c3c2)CC(N)CC4)cc1` (stereo not drawn) [Example 7, 3-Amino-6-N-[2-(4-methylsulphonamidophenyl)ethyl]carboxamido-1,2,3,4-tetrahydrocarbazole oxalate salt], for which the EC50 was in the range of 90 to 4010 nM. As for `COc1ccc(CCNC(=O)c2ccc3[nH]c4c(c3c2)CC(N)CC4)cc1` (stereo not drawn) [Example 8, 3-Amino-6-N-[2-(4-methoxyphenyl)ethyl]carboxamido-1,2,3,4-tetrahydrocarbazole oxalate salt], the EC50 fell in the range of 90 to 4010 nM. As to `COc1ccc(/C=C/CNC(=O)c2ccc3[nH]c4c(c3c2)CC(N)CC4)cc1` (stereo not drawn) [Example 13, 3-Amino-6-[E-3-(4-methoxyphenyl)prop-2-enyl]carboxamido-1,2,3,4-tetrahydrocarbazole oxalate salt], the EC50 was 90 to 4010 nM. With `Nc1ccc(CCNC(=O)c2ccc3[nH]c4c(c3c2)CC(N)CC4)cc1` (stereo not drawn) [Example 6, 3-Amino-6-N-[2-(4-aminophenyl)ethyl]carboxamido-1,2,3,4-tetrahydrocarbazoleoxalate salt], the EC50 fell in the range of 90 to 4010 nM.

The record behind these values is US5612331A, “Tetrahydrocarbazole derivatives as 5-HT1-like agonists” (SmithKline Beecham PLC, priority 1992, dated 1997).
